Converted amounts (≈) assume the structure as drawn.

Chain of Epidermal growth factor receptor (P00533 whole entry): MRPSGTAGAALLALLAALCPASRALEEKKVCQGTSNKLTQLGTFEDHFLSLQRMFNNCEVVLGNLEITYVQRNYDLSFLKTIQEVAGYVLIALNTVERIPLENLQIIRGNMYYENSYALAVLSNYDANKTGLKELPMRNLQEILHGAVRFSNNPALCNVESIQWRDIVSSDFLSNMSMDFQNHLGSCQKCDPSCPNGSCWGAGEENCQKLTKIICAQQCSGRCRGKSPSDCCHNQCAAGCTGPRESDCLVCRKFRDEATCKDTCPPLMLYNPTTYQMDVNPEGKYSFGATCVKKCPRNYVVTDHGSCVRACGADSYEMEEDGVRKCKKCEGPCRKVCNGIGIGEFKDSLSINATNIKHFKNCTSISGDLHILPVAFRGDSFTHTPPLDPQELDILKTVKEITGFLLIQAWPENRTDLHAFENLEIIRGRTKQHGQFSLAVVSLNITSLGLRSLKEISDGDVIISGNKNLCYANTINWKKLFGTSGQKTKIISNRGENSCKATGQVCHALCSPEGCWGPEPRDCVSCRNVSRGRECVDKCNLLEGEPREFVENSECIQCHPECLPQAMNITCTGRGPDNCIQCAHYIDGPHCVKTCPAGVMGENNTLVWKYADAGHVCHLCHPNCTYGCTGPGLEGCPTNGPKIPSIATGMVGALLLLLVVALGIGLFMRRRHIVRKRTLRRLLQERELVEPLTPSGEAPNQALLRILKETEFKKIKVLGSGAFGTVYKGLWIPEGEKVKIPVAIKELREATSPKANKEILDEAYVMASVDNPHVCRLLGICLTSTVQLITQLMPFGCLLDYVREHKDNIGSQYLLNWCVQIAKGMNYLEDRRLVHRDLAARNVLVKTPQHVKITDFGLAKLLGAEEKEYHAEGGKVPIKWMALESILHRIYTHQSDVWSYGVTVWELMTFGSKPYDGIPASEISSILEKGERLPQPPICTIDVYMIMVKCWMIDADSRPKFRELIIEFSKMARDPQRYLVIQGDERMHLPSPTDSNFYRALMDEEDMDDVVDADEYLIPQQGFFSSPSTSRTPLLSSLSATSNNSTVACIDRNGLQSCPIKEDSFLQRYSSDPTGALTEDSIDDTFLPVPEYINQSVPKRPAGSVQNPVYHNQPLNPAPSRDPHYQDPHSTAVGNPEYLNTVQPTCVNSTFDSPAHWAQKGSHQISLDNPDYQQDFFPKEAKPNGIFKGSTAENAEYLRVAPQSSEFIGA

The first test deals with HepG2. Description: cells. The settings on record: Homo sapiens, HepG2, 48 h.
Description: Cytotoxicity against human HepG2 cells after 48 hrs by MTT assay
Usually IC50 stands for the concentration that gives 50% inhibition. A high value points to weaker potency. On to `COC(=O)c1cc(C(=O)C2CC2)n2c(Br)cccc12`, for which the IC50 was 2.5 µg/mL (≈ 7.76 µM). `Cc1ccn2c(C(=O)C3CC3)cc(C#N)c2c1` registered an IC50 of 21 µg/mL (≈ 93.6 µM).

`N#Cc1cc(C(=O)C2CC2)n2ccccc12` showed an IC50 of 0.32 µg/mL (≈ 1.52 µM). On to `N#Cc1cc(C(=O)C2CC2)n2c1ccc1nccn12`, for which half-maximal inhibition (IC50) was put at 15 µg/mL (≈ 59.9 µM). On to `COC(=O)c1cc(C(=O)C2CC2)n2c(C)ccc(Br)c12`, for which the half-inhibitory concentration (IC50) is 1.1 µg/mL (≈ 3.27 µM). Compound `N#Cc1cc(C(=O)C2CC2)n2c(Br)cccc12` displayed an IC50 of 1.8 µg/mL (≈ 6.23 µM).

`Cc1ccc(Br)c2c(C#N)cc(C(=O)C3CC3)n12`: half-maximal inhibition (IC50) required 0.2 µg/mL (≈ 0.66 µM). Still for that read-out and setting: the value for `O=C(Nc1ccccc1)c1cc(C(=O)C2CC2)n2ccccc12` was 0.56 µg/mL (≈ 1.84 µM). Still for that read-out and setting: the value for `O=C(c1c2c(c3ccccn13)C(=O)N(c1ccccc1)C2=O)C1CC1` was 0.48 µg/mL (≈ 1.45 µM); that for `COC(=O)c1cc(C(=O)C2CC2)n2ccccc12` was 6.6 µg/mL (≈ 27.1 µM). `COC(=O)c1cc(C(=O)C2CC2)n2c1ccc1nccn12` had an IC50 of 25 µg/mL (≈ 88.2 µM). In turn, `COC(=O)c1cc(C(=O)C2CC2)n2c1ccc1ccccc12` displayed an IC50 of 4.6 µg/mL (≈ 15.7 µM). The compound `N#Cc1cc(C(=O)C2CC2)n2c1ccc1ccccc12` showed a half-maximal inhibitory concentration (IC50) of 2.1 µg/mL (≈ 8.07 µM). `COC(=O)c1cc(C(=O)C2CC2)n2ccc3ccccc3c12`: inhibition was half-maximal at 9.3 µg/mL (≈ 31.7 µM) (IC50). Take `CCOC(=O)c1c(C(=O)OCC)c2ccccn2c1C(=O)C1CC1`: the IC50 is 32 µg/mL (≈ 97.2 µM). `CCOC(=O)c1c(C(=O)OCC)c2cc(C)ccn2c1C(=O)C1CC1`: the IC50 came out at 0.29 µg/mL (≈ 0.845 µM). For `N#Cc1cc(C(=O)C2CC2)n2ccc3ccccc3c12`, the IC50 is 4.3 µg/mL (≈ 16.5 µM). On the same count and under the same terms, the value for `COC(=O)c1c(C(=O)OC)c2c3ccccc3ccn2c1C(=O)C1CC1` was 27 µg/mL (≈ 76.8 µM).

`COC(=O)c1cc(C(=O)C2CC2)n2ccc(C)cc12` registered a half-inhibitory concentration (IC50) of 25 µg/mL (≈ 97.2 µM).

A further test concerns the target Epidermal growth factor receptor (Homo sapiens, UniProt P00533). Description: Inhibition of human EGFR autophosphorylation expressed in Sf9 cells DELFIA assay. Format: cell-based.
Details: not given
For the compound `Cc1ccc(Br)c2c(C#N)cc(C(=O)C3CC3)n12`, half-maximal inhibition (IC50) required 85 nM.

Values taken from ChEMBL document CHEMBL1177838, “Synthesis and antiproliferative activity of indolizine derivatives incorporating a cyclopropylcarbonyl group against Hep-G2 cancer cell line” (Eur J Med Chem, 2010).
